The subject of this assay is fever induced by lipopolysaccharide (LPS). Kind of assay: LPS-induced fever, antipyretic effect of leaf extract (Example 9-1). In kind it is in vivo, Sprague-Dawley male white rats. As to the method: Test animals were used to determine antipyretic effects of the Stauntonia Hexaphylla leaf extract and fractions thereof prepared in Example 1.
The test animals herein used were 5-week old Sprague-Dawley male white mice obtained from Samtako Inc. (Korea). The test animals were bred at a temperature of 20° C. to 24° C. and at a humidity of 60% to 70% under the day-night illumination condition at 12-hour intervals and were freely fed with water and feed. The feed used herein was a solid feed (Samyang Feed Co., Korea). The test animals were bred under the same conditions for 7 days, adapted to laboratory environments and then used for testing.
Specifically, 5 mice were randomly selected from the test animals and set as a first group, and 500 μg/kg of lipopolysaccharide (LPS, Sigma, USA) was intraperitoneally injected into the mice to induce fever. Body temperature was measured as follows. Rectal body temperature was measured using a rectal thermometer (Portable Thermocouple Thermometer (Physitemp Instruments, USA) and a stainless steel rectal probe for rats (Physitemp Instruments, USA) and body temperatures of SD mice were measured three times before the test to minimize an temperature increase caused by temperature measurement stress.
First, in order to determine antipyretic effects of the Stauntonia Hexaphylla leaf hot water extract, a negative control group (LPS) not treated with any sample, a first positive control group (APAP) orally administered with 50 mg/kg of acetaminophen (APAP, Sigma, USA), a conventional drug, found to have antipyretic effect, and a second positive control group (Dexamethasone) orally administered with 1 mg/kg of dexamethasone (Sigma, USA) were used.
First, 500 μg/kg of a fever-inducing substance (LPS) was intraperitoneally injected (i.p.) into the test animals that finished preparations for minimization of temperature increase caused by temperature measurement stress, and a non-treated group (LPS), a group (SHL-200) orally administered with 200 mg/kg of the Stauntonia Hexaphylla leaf hot water extraction, a group (APAP) orally administered with 50 mg/kg of acetaminophen, and a group (Dexamethasone) orally administered with 1 mg/kg of dexamethasone were prepared according to type of test groups. In addition, 200 mg/kg of the Stauntonia Hexaphylla leaf hot water extract was orally administered one hour after administration of the fever-inducing substance (SHL-200 (1 h)), and rectal temperatures were measured at one hour, 4 hours and 8 hours over 8 hours in total after the administration of the fever-inducing substance. The measurement results are shown in FIG. 12 and the following Table 3. Values of the following Table 3 mean body temperatures (° C.) measured at different times.

Take `CC(=O)Nc1ccc(O)cc1` [APAP, acetaminophen]: the “body temperature (rectal)” value reads like this: (0 h, 50 mg/kg oral with LPS 500 μg/kg i.p.) 37.2 °C; (1 h, 50 mg/kg oral with LPS 500 μg/kg i.p.) 36.58 ± 0.67 °C; (4 h, 50 mg/kg oral with LPS 500 μg/kg i.p.) 37.53 ± 0.59 °C; (8 h, 50 mg/kg oral with LPS 500 μg/kg i.p.) 37.78 ± 0.13 °C.
Consider `C[C@@H]1C[C@H]2[C@@H]3CCC4=CC(=O)C=C[C@]4(C)[C@@]3(F)[C@@H](O)C[C@]2(C)[C@@]1(O)C(=O)CO` [Dexamethasone, dexamethasone], for which the “body temperature (rectal)” value (0 h, 1 mg/kg oral with LPS 500 μg/kg i.p.) came to 37.2 °C; the “body temperature (rectal)” value (1 h, 1 mg/kg oral with LPS 500 μg/kg i.p.) stood at 37.3 ± 0.52 °C; the “body temperature (rectal)” value (4 h, 1 mg/kg oral with LPS 500 μg/kg i.p.) was 37.6 ± 0.12 °C; the “body temperature (rectal)” value (8 h, 1 mg/kg oral with LPS 500 μg/kg i.p.) worked out at 37.73 ± 0.13 °C.

(Values after patent US9370542B2, “Medical composition containing Stauntonia hexaphylla extract” (JEONNAM BIOINDUSTRY FOUNDATION, priority 2011, dated 2016).)
